“And” between values parts separate entries of the source, which are not always exact repeats. Identical values can stand only once.
Columns and labels:
[1] = biological target: T1, human PDE4B1 (Homo sapiens, UniProt Q07343); experiment: cAMP HTRF assay to determine the activity of hPDE4B1; assay type: biochemical; settings: for inhibition at 1 µM: Percentage inhibition of PDE4B at 1 μM test concentration; for IC50: dose response measurements with eight concentrations, reported as ranges, read-out: IC50
T1 construct: host or cells: Sf9 cells
T1 sequence (Q07343 whole entry): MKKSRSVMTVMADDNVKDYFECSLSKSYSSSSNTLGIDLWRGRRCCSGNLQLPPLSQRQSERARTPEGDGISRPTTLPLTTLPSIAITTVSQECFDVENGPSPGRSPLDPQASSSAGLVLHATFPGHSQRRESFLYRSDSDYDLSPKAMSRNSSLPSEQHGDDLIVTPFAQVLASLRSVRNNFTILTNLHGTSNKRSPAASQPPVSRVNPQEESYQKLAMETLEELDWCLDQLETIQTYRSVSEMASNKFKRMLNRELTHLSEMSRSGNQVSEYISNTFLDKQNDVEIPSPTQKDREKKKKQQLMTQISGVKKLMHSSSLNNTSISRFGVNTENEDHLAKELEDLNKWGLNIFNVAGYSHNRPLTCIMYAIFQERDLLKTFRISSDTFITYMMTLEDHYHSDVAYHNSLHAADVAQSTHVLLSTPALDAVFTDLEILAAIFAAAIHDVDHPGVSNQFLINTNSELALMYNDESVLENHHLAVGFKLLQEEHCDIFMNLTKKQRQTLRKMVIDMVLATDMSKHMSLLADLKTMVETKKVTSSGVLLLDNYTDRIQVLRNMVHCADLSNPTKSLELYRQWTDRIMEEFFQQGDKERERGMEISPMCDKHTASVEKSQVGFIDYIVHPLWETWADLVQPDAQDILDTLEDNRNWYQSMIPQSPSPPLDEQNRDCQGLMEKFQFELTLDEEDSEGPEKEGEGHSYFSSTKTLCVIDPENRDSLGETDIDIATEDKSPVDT
Summary of the method: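 Sf9-expressed recombinant human PDE4B1 (4.8 U) in Tris-HCl/MgCl2/DTT/Tween 20 buffer pH 7.8, with cAMP at 40 nM final, 30 min at room temperature. Reaction stopped with IBMX 1 mM; remaining cAMP detected by HTRF (665/620 nm ratio). IC50 from eight-point dose-response, n=2.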

| Compound | inhibition at 1 µM [1] [%] | IC50 [1] | melting point [°C] |
| --- | --- | --- | --- |
| COc1ccc(-c2nc3c(c(N4CCc5cc(CC(=O)O)ccc54)n2)CS(=O)(=O)C3)cc1F [Compound No. 1-10, 2-(1-(2-(3-Fluoro-4-methoxy-phenyl)-6,6-dioxo-5,7-dihydro-thieno[3,4-d]pyrimidin-4-yl)-2,3-dihydro-1H-indol-5-yl)acetic acid] | 96 | < 0.1 µM | 192 to 195 |
| COc1ccc(-c2nc3c(c(N4CCc5c(OCC(=O)N(C)C)cccc54)n2)CS(=O)(=O)C3)cc1 [Compound No. 2-2, 2-((1-(2-(4-Methoxyphenyl)-6,6-dioxo-5,7-dihydro-thieno[3,4-d]pyrimidin-4-yl)-2,3-dihydro-1H-indol-4-yl)oxy)-N,N-dimethyl-acetamide] |  |  | 225 to 232 |
| CN(C)C(=O)COc1cccc2c1CCN2c1nc(-c2cccc(F)c2)nc2c1CS(=O)(=O)C2 [Compound No. 2-4, 2-((1-(2-(3-Fluorophenyl)-6,6-dioxo-5,7-dihydro-thieno[3,4-d]pyrimidin-4-yl)-2,3-dihydro-1H-indol-4-yl)oxy)-N,N-dimethyl-acetamide] |  |  | 237 to 245 |
| CN(C)C(=O)COc1cccc2c1CCN2c1nc(-c2cccc(Cl)c2)nc2c1CS(=O)(=O)C2 [Compound No. 2-6, 2-((1-(2-(3-Chlorophenyl)-6,6-dioxo-5,7-dihydro-thieno[3,4-d]pyrimidin-4-yl)-2,3-dihydro-1H-indol-4-yl)oxy)-N,N-dimethyl-acetamide] |  |  | 222 to 226 |
| COc1ccc(-c2nc3c(c(N4CCc5c(OCC(=O)N(C)C)cccc54)n2)CS(=O)(=O)C3)cc1F [Compound No. 2-10, 2-((1-(2-(3-Fluoro-4-methoxy-phenyl)-6,6-dioxo-5,7-dihydro-thieno[3,4-d]pyrimidin-4-yl)-2,3-dihydro-1H-indol-4-yl)oxy)-N,N-dimethyl-acetamide] |  |  | 231 to 233 |
| CN(C)C(=O)COc1cccc2c1CCN2c1nc(-c2ccc(F)c(F)c2)nc2c1CS(=O)(=O)C2 [Compound No. 2-12, 2-((1-(2-(3,4-Difluoro-phenyl)-6,6-dioxo-5,7-dihydro-thieno[3,4-d]pyrimidin-4-yl)-2,3-dihydro-1H-indol-4-yl)oxy)-N,N-dimethyl-acetamide] |  |  | 212 to 217 |
| O=C(COc1ccc2c(c1)N(c1nc(-c3ccc(Cl)s3)nc3c1CCC3)CC2)N1CCC1 [Compound No. 2-127, 1-(Azetidin-1-yl)-2-((1-(2-(5-chlorothiophen-2-yl)-6,7-dihydro-5H-cyclopenta[d]pyrimidin-4-yl)indolin-6-yl)oxy)ethanone] | 43 |  |  |
| O=C(COc1ccc2c(c1)N(c1nc(-c3ccc(Cl)s3)nc3c1CCC3)CC2)N1CCOCC1 [Compound No. 2-128, 2-((1-(2-(5-Chlorothiophen-2-yl)-6,7-dihydro-5H-cyclopenta[d]pyrimidin-4-yl)indolin-6-yl)oxy)-1-morpholinoethanone] | 85 | 0.1 to 1 µM |  |
| CN1CCN(C(=O)COc2ccc3c(c2)N(c2nc(-c4ccc(Cl)s4)nc4c2CCC4)CC3)CC1 [Compound No. 2-129, 2-((1-(2-(5-Chlorothiophen-2-yl)-6,7-dihydro-5H-cyclopenta[d]pyrimidin-4-yl)indolin-6-yl)oxy)-1-(4-methylpiperazin-1-yl)ethanone] | 48 |  |  |
| O=C(COc1ccc2c(c1)N(c1nc(-c3ccncc3)nc3c1CS(=O)(=O)C3)CC2)N1CCCC1 [Compound No. 2-130, 2-((1-(6,6-Dioxido-2-(pyridin-4-yl)-5,7-dihydrothieno[3,4-d]pyrimidin-4-yl)indolin-6-yl)oxy)-1-(pyrrolidin-1-yl)ethanone] | 87 | < 0.1 µM |  |
| O=C(COc1ccc2c(c1)N(c1nc(-c3ccncc3)nc3c1CS(=O)(=O)C3)CC2)N1CCC1 [Compound No. 2-131, 1-(Azetidin-1-yl)-2-((1-(6,6-dioxido-2-(pyridin-4-yl)-5,7-dihydrothieno[3,4-d]pyrimidin-4-yl)indolin-6-yl)oxy)ethanone] | 90 | < 0.1 µM |  |
| CN(C)C(=O)COc1ccc2c(c1)N(c1nc(-c3ccncc3)nc3c1CS(=O)(=O)C3)CC2 [Compound No. 2-132, 2-((1-(6,6-Dioxido-2-(pyridin-4-yl)-5,7-dihydrothieno[3,4-d]pyrimidin-4-yl)indolin-6-yl)oxy)-N,N-dimethylacetamide] | 91 | < 0.1 µM |  |
| O=C(COc1ccc2c(c1)N(c1nc(-c3ccncc3)nc3c1C[S+]([O-])C3)CC2)N1CCCC1 (stereo not shown) [Compound No. 2-133, 2-((1-(6-Oxido-2-(pyridin-4-yl)-5,7-dihydrothieno[3,4-d]pyrimidin-4-yl)indolin-6-yl)oxy)-1-(pyrrolidin-1-yl)ethanone] | 94 | < 0.1 µM |  |
| O=C(COc1ccc2c(c1)N(c1nc(-c3ccncc3)nc3c1C[S+]([O-])C3)CC2)N1CCC1 (stereo not shown) [Compound No. 2-134, 1-(Azetidin-1-yl)-2-((1-(6-oxido-2-(pyridin-4-yl)-5,7-dihydrothieno[3,4-d]pyrimidin-4-yl)indolin-6-yl)oxy)ethanone] | 77 | < 0.1 µM |  |
| CN(C)C(=O)COc1ccc2c(c1)N(c1nc(-c3ccncc3)nc3c1C[S+]([O-])C3)CC2 (stereo not shown) [Compound No. 2-135, N,N-Dimethyl-2-((1-(6-oxido-2-(pyridin-4-yl)-5,7-dihydrothieno[3,4-d]pyrimidin-4-yl)indolin-6-yl)oxy)acetamide] | 97 | < 0.1 µM |  |
| CN(C)C(=O)COc1ccc2c(c1)N(c1nc(-c3cccnc3)nc3c1CS(=O)(=O)C3)CC2 [Compound No. 2-136, 2-((1-(6,6-Dioxido-2-(pyridin-3-yl)-5,7-dihydrothieno[3,4-d]pyrimidin-4-yl)indolin-6-yl)oxy)-N,N-dimethylacetamide] | 98 | < 0.1 µM |  |
| CN(C)C(=O)COc1ccc2c(c1)N(c1nc(-c3cccnc3)nc3c1C[S+]([O-])C3)CC2 (stereo not shown) [Compound No. 2-137, N,N-Dimethyl-2-((1-(6-oxido-2-(pyridin-3-yl)-5,7-dihydrothieno[3,4-d]pyrimidin-4-yl)indolin-6-yl)oxy)acetamide] | 97 | < 0.1 µM |  |
| COc1ccc(-c2nc3c(c(N4CCc5ccc(OCC(=O)N(C)C)cc54)n2)C[S+]([O-])C3)cn1 (stereo not shown) [Compound No. 2-139, 2-((1-(2-(6-Methoxypyridin-3-yl)-6-oxido-5,7-dihydrothieno[3,4-d]pyrimidin-4-yl)indolin-6-yl)oxy)-N,N-dimethylacetamide] |  | < 0.1 µM |  |
| Cc1ncc(-c2nc3c(c(N4CCc5ccc(OCC(=O)N(C)C)cc54)n2)C[S+]([O-])C3)s1 (stereo not shown) [Compound No. 2-140, N,N-Dimethyl-2-((1-(2-(2-methylthiazol-5-yl)-6-oxido-5,7-dihydrothieno[3,4-d]pyrimidin-4-yl)indolin-6-yl)oxy)acetamide] | 95 | < 0.1 µM |  |
| COc1ccc(-c2nc3c(c(N4CCc5ccc(OCC(=O)N(C)C)cc54)n2)C[S+]([O-])C3)nc1 (stereo not shown) [Compound No. 2-141, 2-((1-(2-(5-Methoxypyridin-2-yl)-6-oxido-5,7-dihydrothieno[3,4-d]pyrimidin-4-yl)indolin-6-yl)oxy)-N,N-dimethylacetamide] | 98 | < 0.1 µM |  |
| COc1ccc(-c2nc3c(c(N4CCc5ccc(OCC(=O)N(C)C)cc54)n2)CS(=O)(=O)C3)nc1 [Compound No. 2-143, 2-((1-(2-(5-Methoxypyridin-2-yl)-6,6-dioxido-5,7-dihydrothieno[3,4-d]pyrimidin-4-yl)indolin-6-yl)oxy)-N,N-dimethylacetamide] | 87 | 0.1 to 1 µM and < 0.1 µM |  |
| N#CCOc1ccc2c(c1)N(c1nc(-c3ccc(Cl)s3)nc3c1CS(=O)(=O)C3)CC2 [Compound No. 3-1, 2-((1-(2-(5-Chlorothiophen-2-yl)-6,6-dioxido-5,7-dihydrothieno[3,4-d]pyrimidin-4-yl)indolin-6-yl)oxy)acetonitrile] |  | 0.1 to 1 µM |  |
| CN(C)CCOc1ccc2c(c1)N(c1nc(-c3ccc(Cl)s3)nc3c1CS(=O)(=O)C3)CC2 [Compound No. 3-3, 2-(5-Chlorothiophen-2-yl)-4-(6-(2-(dimethylamino)ethoxy)indolin-1-yl)-5,7-dihydrothieno[3,4-d]pyrimidine 6,6-dioxide] |  | 0.1 to 1 µM |  |
| CCNC(=O)Cc1ccc2c(c1)CCN2c1nc(-c2ccc(Cl)s2)nc2c1CS(=O)(=O)C2 [Compound No. 3-4, 2-(1-(2-(5-Chlorothiophen-2-yl)-6,6-dioxido-5,7-dihydrothieno[3,4-d]pyrimidin-4-yl)indolin-5-yl)-N-ethylacetamide] |  | 0.1 to 1 µM |  |
| CNC(=O)Cc1ccc2c(c1)CCN2c1nc(-c2ccc(Cl)s2)nc2c1CS(=O)(=O)C2 [Compound No. 3-5, 2-(1-(2-(5-Chlorothiophen-2-yl)-6,6-dioxido-5,7-dihydrothieno[3,4-d]pyrimidin-4-yl)indolin-5-yl)-N-methylacetamide] |  | 0.1 to 1 µM |  |
| NC(=O)Cc1ccc2c(c1)CCN2c1nc(-c2ccc(Cl)s2)nc2c1CS(=O)(=O)C2 [Compound No. 3-6, 2-(1-(2-(5-Chlorothiophen-2-yl)-6,6-dioxido-5,7-dihydrothieno[3,4-d]pyrimidin-4-yl)indolin-5-yl)acetamide] | 103 | < 0.1 µM |  |
| CN(C)CCOc1ccc2c(c1)N(c1nc(-c3ccc(Cl)s3)nc3c1CCC3)CC2 [Compound No. 3-7, 2-((1-(2-(5-Chlorothiophen-2-yl)-6,7-dihydro-5H-cyclopenta[d]-pyrimidin-4-yl)indolin-6-yl)oxy)-N,N-dimethylethanamine] | 48 |  |  |
| CN(C)C(=O)Cc1ccc2c(c1)CCN2c1nc(-c2ccc(Cl)s2)nc2c1CS(=O)(=O)C2 [Compound No. 3-8, 2-(1-(2-(5-Chlorothiophen-2-yl)-6,6-dioxido-5,7-dihydrothieno[3,4-d]pyrimidin-4-yl)indolin-5-yl)-N,N-dimethylacetamide] | 32 |  |  |

— patent US9527832B2, “Substituted condensed pyrimidine compounds” (GRÜNENTHAL GMBH, priority 2013, dated 2016)
